What was measured:
[1] = biological target: T1, Phosphodiesterase 3 (Homo sapiens, UniProt Q14432+Q13370); assay: Inhibitory effect in cGMP-inhibited Phosphodiesterase 3 (PDE 3) isolated from guinea pig ventricular tissue.; format: protein assay, Cavia porcellus; conditions: target entry is the homologue from another species
[2] = biological target: T2, Phosphodiesterase 4 (Homo sapiens, UniProt P27815+Q08499+Q07343+Q08493); assay: Inhibitory effect in cAMP-specific Phosphodiesterase 4 (PDE 4) isolated from guinea pig ventricular tissue.; format: protein assay, Cavia porcellus; conditions: target entry is the homologue from another species
[3] = biological target: T1, Phosphodiesterase 3; assay: Inhibition of guinea pig ventricular Phosphodiesterase 3 (PDE 3) at 200 uM; format: protein assay; conditions: Cavia porcellus, target entry is the homologue from another species
[4] = biological target: T1, Phosphodiesterase 3; assay: Inhibition of guinea pig ventricular Phosphodiesterase 3 (PDE 3); format: protein assay, Cavia porcellus; conditions: target entry is the homologue from another species
[5] = biological target: T2, Phosphodiesterase 4; assay: Inhibition of guinea pig ventricular Phosphodiesterase 4 (PDE 4) at 200 uM; format: protein assay; conditions: Cavia porcellus, target entry is the homologue from another species

| IC50 [1] | IC50 [2] | inhibition [3] | IC50 [4] | inhibition [5] | Compound |
| --- | --- | --- | --- | --- | --- |
| 2.4 µM | 3.8 µM | – | – | – | CCCc1nc(SCc2ccc(-c3ccccc3-c3nn[nH]n3)cc2)c2cc(C)ccc2n1 |
| 11 µM | 8.6 µM | – | – | – | CCCc1nc(SCc2ccc(-c3ccccc3-c3nn[nH]n3)cc2)c2cc(C)cc(C)c2n1 |
| – | 107 µM | 15% | – | – | CCN(Cc1ccccc1-n1ncnn1)c1nc2nc3ccccc3n2s1 |
| – | – | – | 13 µM | – | CCCCc1nc(Cl)c(CO)n1Cc1ccc(-c2ccccc2-c2nnn[nH]2)cc1 [LOSARTAN] |
| – | 48 µM | 41% | – | – | CCN(Cc1ccccc1-c1ccccc1)c1nc2nc3ccccc3n2s1 |
| 6.8 µM | 3.8 µM | – | – | – | CCCc1nc(SCc2ccc(-c3ccccc3-c3nn[nH]n3)cc2)c2ccccc2n1 |
| 8 µM | 2.9 µM | – | – | – | CCCCc1nc(SCc2ccc(-c3ccccc3-c3nn[nH]n3)cc2)c2ccccc2n1 |
| 7 µM | 3.3 µM | – | – | – | CCc1nc(SCc2ccc(-c3ccccc3-c3nn[nH]n3)cc2)c2ccccc2n1 |
| 5.8 µM | 14 µM | – | – | – | CCc1nc(OCc2ccc(-c3ccccc3-c3nn[nH]n3)cc2)c2ccccc2n1 |
| – | 42 µM | 15% | – | – | CCCCN(Cc1ccccc1-c1ccccc1)c1nc2c3c(ccc2s1)CCCC3 |
| – | – | 32% | – | 44% | CCCCN(Cc1ccccc1-n1ncnn1)c1nc2nc3ccccc3n2s1 |
| – | 32 µM | 12% | – | – | CCN(Cc1ccccc1)c1nc2nc3ccccc3n2s1 |
| 5.4 µM | 7.9 µM | – | – | – | CCCCc1nc(OCc2ccc(-c3ccccc3-c3nn[nH]n3)cc2)c2ccccc2n1 |
| – | 90 µM | 0% | – | – | CCCCN(Cc1ccccc1)c1nc2nc3ccccc3n2s1 |
| 4.8 µM | 15 µM | – | – | – | Cc1nc(SCc2ccc(-c3ccccc3-c3nn[nH]n3)cc2)c2ccccc2n1 |
| – | 30 µM | 31% | – | – | CCCCN(Cc1ccccc1-c1ccccc1)c1nc2nc3ccccc3n2s1 |
| – | – | 50% | – | 48% | CCCCN(Cc1ccc(-c2ccccc2-n2ncnn2)cc1)c1nc2nc3ccccc3n2s1 |
| 24 µM | 21 µM | – | – | – | CCc1nc(NCc2ccc(-c3ccccc3-c3nn[nH]n3)cc2)c2ccccc2n1 |
| 16 µM | 7.6 µM | – | – | – | CCCCc1nc(NCc2ccc(-c3ccccc3-c3nn[nH]n3)cc2)c2ccccc2n1 |
| – | 74 µM | – | 125 µM | – | CCN(Cc1ccc(-c2ccccc2-n2ncnn2)cc1)c1nc2nc3ccccc3n2s1 |
| 2.4 µM | 3.8 µM | – | – | – | CC(C)c1nc(SCc2ccc(-c3ccccc3-c3nn[nH]n3)cc2)c2ccccc2n1 |

From ChEMBL document CHEMBL1130766, “Phosphodiesterase inhibitory properties of losartan. Design and synthesis of new lead compounds” (Bioorg Med Chem Lett, 1998)
